# Reference: patent EP2236511A2, “LIGANDS OF ALPHA-ADRENOCEPTORS AND OF DOPAMINE, HISTAMINE, IMIDAZOLINE AND SEROTONIN RECEPTORS AND THE USE THEREOF” (priority 2007, dated 2009)
# Counter-ions that a name gives are not always drawn. Like-named read-outs stand apart in the source and are kept apart here.
# What was measured:
# adrenergic receptor α1A = molecular target: T1, adrenergic receptor α1A (Rattus norvegicus, UniProt P43140); test: Radioligand binding to adrenergic receptor α1A ([3H] Prazosin, rat submaxillary gland membranes); conditions: for nH: Receptor α1A
# T1 construct: membrane species from rat submaxillary glands (rat of Wistar breed) are prepared; from tissue; host or cells: rat (Wistar) submaxillary gland
# T1 sequence (P43140 1-466): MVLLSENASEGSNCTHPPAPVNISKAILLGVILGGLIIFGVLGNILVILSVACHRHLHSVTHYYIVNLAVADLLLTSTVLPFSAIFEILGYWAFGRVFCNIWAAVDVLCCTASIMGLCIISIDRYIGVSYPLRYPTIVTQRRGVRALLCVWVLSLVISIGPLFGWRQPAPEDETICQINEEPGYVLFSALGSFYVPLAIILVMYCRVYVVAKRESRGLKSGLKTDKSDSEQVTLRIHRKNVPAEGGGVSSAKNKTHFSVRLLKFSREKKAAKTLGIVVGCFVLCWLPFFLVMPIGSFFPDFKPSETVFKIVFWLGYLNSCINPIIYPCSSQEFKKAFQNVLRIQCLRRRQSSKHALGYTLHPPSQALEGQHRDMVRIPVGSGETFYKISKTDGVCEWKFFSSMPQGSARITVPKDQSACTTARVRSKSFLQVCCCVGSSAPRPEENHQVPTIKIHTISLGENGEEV
# Protocol: Determination of investigated compounds' binding to α1A receptor was carried out according to the method described in [Michel AD, Loury DN and Whiting R1. Identification of a single α1A-adrenoceptor corresponding to the α1A-subtype in rat submaxillary gland. […] Prazosin is used as positive control.
# human H2 receptor = molecular target: T2, human H2 receptor (Homo sapiens, UniProt P25021); test: Radioligand binding to histamine receptor H2 ([125I] Aminopotentidine, CHO-K1 membranes); conditions: for inhibition at 10 µM: read-out: Histamine receptors, % inhibition H2
# T2 construct: expressed in transfected cells; host or cells: CHO-K1
# T2 sequence (P25021 whole entry): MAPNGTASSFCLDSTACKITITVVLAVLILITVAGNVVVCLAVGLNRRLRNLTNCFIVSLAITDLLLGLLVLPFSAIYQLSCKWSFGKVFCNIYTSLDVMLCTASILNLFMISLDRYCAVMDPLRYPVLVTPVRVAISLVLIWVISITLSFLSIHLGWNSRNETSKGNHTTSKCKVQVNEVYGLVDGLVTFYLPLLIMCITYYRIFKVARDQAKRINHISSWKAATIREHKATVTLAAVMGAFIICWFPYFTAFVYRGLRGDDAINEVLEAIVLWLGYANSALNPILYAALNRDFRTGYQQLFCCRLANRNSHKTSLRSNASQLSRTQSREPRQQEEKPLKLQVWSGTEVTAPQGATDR
# Description: Proc Natl Acad Sci USA. 87(5): 1658-1662, 1990]. […] Proc Natl Acad Sci USA. 87(5): 1658-1662, 1990]. […] Tiotidine is used as positive control.
# imidazoline receptor I2 = test: Radioligand binding to imidazoline receptor I2 ([3H] Idazoxan, rat brain membranes)
# Protocol: For this purpose membrane species are prepared from rat (Wistar) brain homogenates by homogenization of them in glass homogenizer with the subsequent separation of plasmatic membranes from cell nuclei, mitochondrias and cell wreckages by differential centrifugation. […] After incubation the samples are filtered in vacuo on glass-microfiber filters G/F (Millipor, USA), filters are washed three times with cold solution of medium and radioactivity is measured by scintillation counter MicroBeta 340 (Perkin Elmer, USA). […] Idazoxan is used as positive control.
# The tested compounds' binding to the receptor is determined by their ability to displace the radioligand and expressed in percent of displacement (%I). Values of %I are calculated according to the following equation: %I = (TA-CA)/(TA-NA)*100, [formula] wherein: TA - is the overall radioactivity in the presence of radioligand only, CA - is the radioactivity in the presence of radioligand and tested compound and NA - is a radioactivity in the presence of radioligand and Idazoxan (1 µM).
# human α2A receptor = molecular target: T3, human α2A receptor (Homo sapiens, UniProt P08913); test: Radioligand binding to adrenergic receptor α2A ([3H] MK-912, Sf9 membranes); conditions: for nH: Receptor α2A
# T3 construct: expressed in transfected cells; host or cells: Sf9
# T3 sequence (P08913 1-465): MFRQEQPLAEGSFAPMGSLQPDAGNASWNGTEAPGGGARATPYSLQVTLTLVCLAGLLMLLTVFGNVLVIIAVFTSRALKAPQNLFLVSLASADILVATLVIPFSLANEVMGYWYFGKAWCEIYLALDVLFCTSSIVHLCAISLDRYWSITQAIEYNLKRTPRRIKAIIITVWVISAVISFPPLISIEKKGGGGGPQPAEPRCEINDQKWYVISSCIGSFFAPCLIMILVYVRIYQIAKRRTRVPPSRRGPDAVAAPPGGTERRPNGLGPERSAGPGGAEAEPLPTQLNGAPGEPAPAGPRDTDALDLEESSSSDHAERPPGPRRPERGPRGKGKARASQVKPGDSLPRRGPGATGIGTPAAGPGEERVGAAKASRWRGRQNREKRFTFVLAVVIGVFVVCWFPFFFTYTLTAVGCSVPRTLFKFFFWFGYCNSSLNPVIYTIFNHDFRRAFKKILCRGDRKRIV
# Description: For this purpose sDNA of human α2A receptor is expressed in Sf9 cells, as described in [Uhlen S, Porter AC and Neubig RR. […] J Pharmacol ExpTher. […] J Pharmacol ExpTher. […] Yohimbine is used as positive control.
# adrenergic receptor α1B = molecular target: T4, adrenergic receptor α1B (Rattus norvegicus, UniProt P15823); test: Radioligand binding to adrenergic receptor α1B ([3H] Prazosin, rat liver membranes); conditions: for nH: Receptor α1B
# T4 construct: membrane species from rat liver (rat of Wistar breed) are prepared; from tissue; host or cells: rat (Wistar) liver
# T4 sequence (P15823 1-515): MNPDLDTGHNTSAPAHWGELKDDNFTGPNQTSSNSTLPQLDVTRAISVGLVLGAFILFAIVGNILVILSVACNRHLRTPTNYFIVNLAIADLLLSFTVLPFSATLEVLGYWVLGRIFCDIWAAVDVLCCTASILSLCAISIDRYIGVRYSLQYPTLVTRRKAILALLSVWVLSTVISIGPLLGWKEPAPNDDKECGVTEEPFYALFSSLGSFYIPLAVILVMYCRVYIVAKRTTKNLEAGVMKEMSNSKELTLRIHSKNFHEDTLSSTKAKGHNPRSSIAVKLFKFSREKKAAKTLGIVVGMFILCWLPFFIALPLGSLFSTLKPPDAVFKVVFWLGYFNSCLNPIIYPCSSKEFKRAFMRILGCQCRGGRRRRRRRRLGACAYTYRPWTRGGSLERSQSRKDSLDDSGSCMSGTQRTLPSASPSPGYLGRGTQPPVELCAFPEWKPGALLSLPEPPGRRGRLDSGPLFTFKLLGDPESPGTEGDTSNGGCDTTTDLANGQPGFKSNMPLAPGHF
# Description: Species heterogeneity of hepatic α1A-, α1B-, and α1C-subtypes. Biochem Biophys Res Commun. […] Prazosin is used as positive control.
# [1] = molecular target: T5, recombinant human 5-HT6 receptor (Homo sapiens, UniProt P50406); test: Radioligand binding to serotonin receptor 5-HT6 ([3H] Lysergic acid diethylamide, HeLa membranes)
# T5 construct: expressed in transfected cells; host or cells: HeLa
# T5 sequence (P50406 whole entry): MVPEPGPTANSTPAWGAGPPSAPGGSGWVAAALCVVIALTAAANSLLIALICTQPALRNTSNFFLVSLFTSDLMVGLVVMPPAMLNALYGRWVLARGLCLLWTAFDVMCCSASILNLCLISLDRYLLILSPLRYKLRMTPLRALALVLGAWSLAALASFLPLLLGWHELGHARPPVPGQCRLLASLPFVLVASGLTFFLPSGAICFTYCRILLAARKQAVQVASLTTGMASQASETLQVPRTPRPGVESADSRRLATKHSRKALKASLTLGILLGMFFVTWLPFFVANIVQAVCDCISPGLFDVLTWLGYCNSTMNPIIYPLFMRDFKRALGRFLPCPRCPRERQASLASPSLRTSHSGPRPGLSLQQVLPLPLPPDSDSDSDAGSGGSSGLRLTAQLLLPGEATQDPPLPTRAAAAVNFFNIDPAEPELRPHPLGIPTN
# Description: Mol Pharmacol. 43:320-327, 1993]. […] Methiothepin is used as positive control.
# [2] = molecular target: T6, serotonin receptor 5-HT1B (Rattus norvegicus, UniProt P28564); test: Radioligand binding to serotonin receptor 5-HT1B ([125I] cyanopindolol, rat brain cortex membranes)
# T6 construct: membrane species are prepared from rat brains (Wistar) by homogenization of species of rat brain-cortices; from tissue; host or cells: rat (Wistar) brain cortex
# T6 sequence (P28564 whole entry): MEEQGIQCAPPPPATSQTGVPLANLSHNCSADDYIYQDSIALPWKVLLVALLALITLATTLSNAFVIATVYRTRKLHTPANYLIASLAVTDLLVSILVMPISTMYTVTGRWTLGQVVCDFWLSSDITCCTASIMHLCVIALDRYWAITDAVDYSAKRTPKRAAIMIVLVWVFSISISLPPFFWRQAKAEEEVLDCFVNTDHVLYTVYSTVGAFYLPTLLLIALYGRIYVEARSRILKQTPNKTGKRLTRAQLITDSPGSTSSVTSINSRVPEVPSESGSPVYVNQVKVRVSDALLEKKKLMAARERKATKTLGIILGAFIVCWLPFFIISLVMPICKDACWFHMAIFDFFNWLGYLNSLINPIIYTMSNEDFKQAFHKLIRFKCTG
# Description: Serotonin is used as positive control.
# [3] = molecular target: T7, recombinant human 5-HT2B receptor (Homo sapiens, UniProt P41595); test: Radioligand binding to serotonin receptor 5-HT2B ([3H] Lysergic acid diethylamide, CHO-K1 membranes)
# T7 construct: expressed in transfected cells; host or cells: CHO-K1
# T7 sequence (P41595 whole entry): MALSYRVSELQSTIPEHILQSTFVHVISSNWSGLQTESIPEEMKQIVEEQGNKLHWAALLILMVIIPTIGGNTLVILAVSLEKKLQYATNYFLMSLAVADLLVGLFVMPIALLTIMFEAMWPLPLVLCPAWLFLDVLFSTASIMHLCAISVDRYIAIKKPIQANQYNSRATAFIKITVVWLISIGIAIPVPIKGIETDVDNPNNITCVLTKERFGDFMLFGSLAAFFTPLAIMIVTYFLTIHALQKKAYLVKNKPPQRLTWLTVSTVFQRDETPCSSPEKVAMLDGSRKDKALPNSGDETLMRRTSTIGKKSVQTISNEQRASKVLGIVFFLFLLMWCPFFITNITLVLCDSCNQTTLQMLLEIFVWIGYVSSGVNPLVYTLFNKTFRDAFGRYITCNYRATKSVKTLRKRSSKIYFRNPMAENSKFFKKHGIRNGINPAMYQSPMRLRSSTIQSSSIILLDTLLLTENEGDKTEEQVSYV
# Protocol: For this purpose membrane species are prepared from CHO-K1 cells comprising recombinant human 5-HT2B receptor by homogenization of recombinant cells in glass homogenizer with the subsequent separation of plasmatic membranes from cell nuclei, mitochondrias and cell wreckages by differential centrifugation. […] After incubation the samples are filtered in vacuo on glass-microfiber filters G/F (Millipor, USA), filters are washed three times with cold solution of medium and radioactivity is measured by scintillation counter MicroBeta 340 (Perkin Elmer, USA). […] Ketanserin is used as positive control. The tested compounds' binding to the receptor is determined by their ability to displace the radioligand and is expressed in percent of displacement (%I). Values of %I are calculated according to the following equation: %I = (TA-CA)/(TA-NA)*100, [formula] wherein: TA - is the overall radioactivity in the presence of radioligand only, CA - is the radioactivity in the presence of radioligand and tested compound and NA - is the radioactivity in the presence of radioligand and Serotonin (10 µM).
# [4] = read-out: α-Adrenoceptor, % inhibition α1A
# [5] = read-out: α-Adrenoceptor, % inhibition α2A
# [6] = read-out: α-Adrenoceptor, % inhibition α1B
# [7] = last block of Table 11: receptor printed 5-HT6 in r18, cell blank in r19-r21
Compound,inhibition at 10 µM (adrenergic receptor α1A; [4]) [%],inhibition at 10 µM (human H2 receptor) [%],% inhibition (imidazoline receptor I2; 10 µM ligand) [%],inhibition at 10 µM (human α2A receptor; [5]) [%],inhibition at 10 µM (adrenergic receptor α1B; [6]) [%],inhibition at 10 µM ([2]; read-out: 5-HT1B % inhibition) [%],IC50 (imidazoline receptor I2) [nM],Ki (imidazoline receptor I2) [nM],nH ([3]; 5-HT2B),nH (adrenergic receptor α1A),nH (human α2A receptor),nH (adrenergic receptor α1B),nH ([1]; 5-HT6),other results
Cc1ccc2c(c1)[C@@H]1CN(C)CCC[C@@H]1N2CCc1cccnc1 (relative stereo) [1.6.1(1)·3HCl],90,48,80,84,94,–,–,–,–,–,–,–,–,inhibition at 1 µM ([1]; read-out: 5-HT6 % inhibition): 84%
Cc1ccc2c(c1)[C@@H]1CN(C)CCC[C@@H]1N2CCc1ccc(C)nc1 (relative stereo) [1.6.1(2)·3HCl],–,66,80,82,93,-6,–,–,–,–,–,–,–,inhibition at 10 µM ([3]; read-out: 5-HT2B % inhibition): -2%; inhibition at 1 µM ([1]; read-out: 5-HT6 % inhibition): 76%; inhibition at 10 µM ([1]; read-out: 5-HT6 % inhibition): -10%
"Cc1ccc2c(c1)c1c(n2CCc2ccccc2)CCN(C)C1 [1.1.2(1-2)·HCl, 2,8-dimethyl-5-phenethyl-1,2,3,4-tetrahydro-1H-pyrido[4,3-b]indole hydrochloride]",99,102,93,95,101,82,268,179,"0,868",–,–,–,–,inhibition at 10 µM ([3]; read-out: 5-HT2B % inhibition): 100%
"Cc1ccc(CCn2c3c(c4cc(C)ccc42)CN(C)CC3)cc1 [1.1.2(1-3), 2,8-dimethyl-5-[2-(4-methylphenyl)-ethyl]-1,2,3,4-tetrahydro-1H-pyrido[4,3-b]indole]",–,–,93,–,–,–,–,–,–,"1,26",1.12,"1,13",–,5-HT1B % inhibition ([2]; 10 µM ligand): 59%; 5-HT2B % inhibition ([3]; 10 µM ligand): 95%
Cc1ccc2c(c1)c1c(n2CCc2ccccn2)CCN(C)C1 [1.1.2(2-3)·2HCl],81,82,88,93,98,–,–,–,0.913,–,–,–,0.744,"inhibition at 1 µM ([2]; read-out: 5-HT1B % inhibition): 65%; inhibition at 1 µM ([3]; read-out: 5-HT2B % inhibition): 89%; IC50 [1]: 2.14 nM; Ki [1]: 1.23 nM; nH [1, 7]: 0.655"
Cc1ccc2c(c1)c1c(n2CCc2ccc(C)nc2)CCN(C)C1 [1.1.2(4-2)·2HCl],–,–,98,–,–,–,310,210,–,1.12,0.828,1.54,–,"inhibition at 10 µM (adrenergic receptor α1A; 10 µM ligand, read-out: α-Adrenoceptor, % inhibition α1A): 97%; inhibition at 10 µM ([2]; 10 µM ligand, read-out: 5-HT1B % inhibition): 19%; inhibition at 10 µM (human α2A receptor; 10 µM ligand, read-out: α-Adrenoceptor, % inhibition α2A): 95%; inhibition at 10 µM (adrenergic receptor α1B; 10 µM ligand, read-out: α-Adrenoceptor, % inhibition α1B): 101%; inhibition at 10 µM ([3]; 10 µM ligand, read-out: 5-HT2B % inhibition): 47%; inhibition at 10 µM ([1]; 10 µM ligand, read-out: 5-HT6 % inhibition): 90%"
Cc1ccc2c(c1)c1c(n2CCc2ccccn2)CCCN(C)C1 [1.2.2(2-2)],–,–,80,–,–,–,–,–,–,–,–,–,–,"α-Adrenoceptor, % inhibition α1A (adrenergic receptor α1A; 10 µM ligand): 64%; 5-HT1B % inhibition ([2]; 10 µM ligand): 6%; α-Adrenoceptor, % inhibition α2A (human α2A receptor; 10 µM ligand): 90%; α-Adrenoceptor, % inhibition α1B (adrenergic receptor α1B; 10 µM ligand): 80%; 5-HT6 % inhibition ([1]; 10 µM ligand): 21%"
"CN1CCc2c(c3ccccc3n2Cc2ccccc2)C1 [1.9(1)·1/2NDSA, bis-(5-benzyl-2-methyl-2,3,4,5-tetrahydro-1H-pyrido[4,3-b]indole) naphthalene-1,5-disulfonate]",–,–,–,–,–,–,169,110,0.552,"1,08","1,13","0,956",1.07,"inhibition at 1 µM (adrenergic receptor α1A; [4]): 67%; Histamine receptors, % inhibition H2 (human H2 receptor; 10 µM ligand): 97%; % inhibition (imidazoline receptor I2; 0.3 µM ligand): 87(0.3 µM) %; inhibition at 0.3 µM ([2]; read-out: 5-HT1B % inhibition): 4%; inhibition at 0.3 µM (human α2A receptor; [5]): 73%; inhibition at 3 µM (adrenergic receptor α1B; [6]): 62%; IC50 ([3]; 5-HT2B): 31.4 nM; Ki ([3]; 5-HT2B): 20 nM; inhibition at 0.3 µM ([1]; read-out: 5-HT6 % inhibition): 78%"
"CN1CCc2c(c3ccccc3n2Cc2ccccc2)C1.Cl [1.9(1)·HCl, 5-benzyl-2-methyl-2,3,4,5-tetrahydro-1H-pyrido[4,3-b]indole hydrochloride]",70,97,–,100,70,13,–,–,0.836,–,–,–,1.04,"% inhibition (imidazoline receptor I2; 3 µM ligand): 75 (3 µM) %; IC50 (imidazoline receptor I2; hydrochloride): 994 nM; Ki (imidazoline receptor I2; hydrochloride): 662 nM; inhibition at 10 µM ([3]; read-out: 5-HT2B % inhibition, 10 µM ligand): 99%; IC50 [1]: 110 nM; Ki [1]: 63.2 nM; nH [1, 7]: 1.32; inhibition at 10 µM ([1]; read-out: 5-HT6 % inhibition): 71%"
